Measurements reported in patent US10703736B2, “Configurational stereoisomer of bromadiolone, composition and rodenticide bait comprising same, and method for controlling target rodent pests” (priority 2015, dated 2020).
“Also recorded” adds a separate entry of the source.

How the values were obtained:
[1] = assay type: in vivo, rat; conditions: Sprague-Dawley rats, mixture D1,2 56% / D3,4 44%, about 13 mg bromadiolone per kg per os, liver on D1, D3, D7; FIG. 2
Experimental: (§1) About 0.525 g (+0.025 g) of rat liver is weighed out accurately and placed in a 50 mL polypropylene tube. 10 mL of acetone are added and the suspension is homogenized using an Ultra-Turrax® homogenizer/disperser for a time of about 30 seconds. The homogenizer/disperser shaft is rinsed with hot water and then twice with 20 mL of acetone in a polypropylene tube. The homogenate is centrifuged for 5 minutes at a centrifugation speed of 3000 rpm (revolutions per minute). The supernatant is collected and transferred into a test tube. The sample is subjected to evaporation under a stream of nitrogen (N2) at a temperature of 40° C. so as to form a dry extract.
(§2) 1 mL of acetonitrile is added to the tube containing the dry extract so as to dissolve it. The acetonitrile solution is washed twice successively with 1 mL of hexane. […]
On D1 (D+1), D3 (D+3) and D7 (D+7) after tube feeding, four rats anaesthetized beforehand with isoflurane are euthanized, the liver of the euthanized rats is removed, the bromadiolone is then extracted from the liver and the amount of each of the configurational stereoisomers of bromadiolone is assayed by high-pressure liquid chromatography analysis on a chiral column as described above. The area under the peaks of the chromatogram obtained is measured and each configurational stereoisomer of bromadiolone is quantified by comparison with a calibration curve.

[2] = Hepatic persistence of each configurational stereoisomer in rats tube-fed with a single stereoisomer; assay type: in vivo, rat; conditions: liver of rats tube-fed with the single enantiomer at 1.5 mg per kilogram; FIG. 4
Experimental: as §1, §2
The liver of the rats treated above is removed for the purposes of comparative analysis of the anticoagulant power of the configurational stereoisomers of bromadiolone, the bromadiolone is then extracted from the liver and the amount of each of the configurational stereoisomers of bromadiolone is assayed by high-pressure liquid chromatography analysis on a chiral column as described above. The area under the peaks of the chromatogram obtained is measured and each configurational stereoisomer of bromadiolone is quantified by comparison with a calibration curve. […]

[3] = system: male laboratory rats (OFA, Sprague-Dawley 200 g); test: Anticoagulant power of each configurational stereoisomer: coagulation time (Quick time) of plasma of tube-fed rats; assay type: in vivo; conditions: 1.5 mg of enantiomer per kilogram of rat by tube feeding on D0; blood on D1, D3, D7, D14; FIG. 3
Experimental: The following are administered to male laboratory rats (OFA, Sprague-Dawley 200 g) by tube feeding on D0: a composition comprising enantiomer E1 in a proportion of 1.5 mg of said enantiomer E1 per kilogram of rat; or a composition comprising enantiomer E2 in a proportion of 1.5 mg of said enantiomer E2 per kilogram of rat; or a composition comprising enantiomer E3 in a proportion of 1.5 mg of said enantiomer E3 per kilogram of rat; or a composition comprising enantiomer E4 in a proportion of 1.5 mg of said enantiomer E4 per kilogram of rat.
On these rats, blood is collected on D1, D3, D7 and D14 and measurement of the coagulation time (Quick time, expressed in seconds) of the plasma is performed using the “Neoplastine CI Determination of Prothrombin Time” kit (Diagnostica Stago, Asnibre, France) by measurement on a Thrombotimer Option 2 Plus machine (Behnk Electronik, Norderstedt, Germany).

SMILES | persistence in rat liver (hepatic concentration) [1] | hepatic persistence of each enantiomer [2] | anticoagulant effect / anticoagulant activity (coagulation time, Quick time) [3]
O=c1oc2ccccc2c(O)c1C(CC(O)c1ccc(-c2ccc(Br)cc2)cc1)c1ccccc1 (single isomer, unassigned) [enantiomer E1, 3-[3-(4′-bromo[1,1′-biphenyl]-4-yl)-3-hydroxy-1-phenylpropyl]-4-hydroxy-2H-1-benzopyran-2-one] | longest persistence in rat liver of the four enantiomers | highest hepatic persistence among the bromadiolone enantiomers; also recorded: higher than the persistence in the liver of target rodent pests of said enantiomer E2 and higher than the persistence in the liver of target rodent pests of each enantiomer of said diastereoisomer D3,4 | sufficient to maintain an anticoagulant effect up to D7; also recorded: higher anticoagulant activity than the anticoagulant activity of said enantiomer E2 and also higher than the anticoagulant activities of said two enantiomers of said diastereoisomer D3,4
O=c1oc2ccccc2c(O)c1C(CC(O)c1ccc(-c2ccc(Br)cc2)cc1)c1ccccc1 (single isomer, unassigned) [diastereoisomer D1,2, 3-[3-(4′-bromo[1,1′-biphenyl]-4-yl)-3-hydroxy-1-phenylpropyl]-4-hydroxy-2H-1-benzopyran-2-one] | the more persistent in the liver of target rodents |  | 
